Test results as given in patent publication US20250236596A1, “HYDROXYLAMINE-BASED EGFR INHIBITORS FOR TREATMENT OF CANCER WITH BRAIN METASTASES” (University of Georgia Research Foundation, Inc., priority 2022, published 2025).

Legend:
[1] = test system: Salmonella strains (TA98, TA100, TA1537 and TA1535); format: cell-based; conditions: with and without rat liver S9; 4 Salmonella strains
Description: Compounds were assessed for mutagenicity at Eurofins Panlabs. in 384-well plates using four Salmonella strains: TA98, to probe for frameshift mutation (with quercetin as control), TA100 and TA1535, to probe for base pair […] (with streptozotocin as control), and TA1537, to probe for frameshift mutations (with aminoacridine as control) as previously described.^21 Each compound was incubated at 37° C. for 96 h at four different concentrations (5, 10, 50, and 100 μM), with each concentration tested using 48 replicates, both with and without rat liver S9 metabolic activation. A concurrent bacterial cytotoxicity assay was ran at 0.6, 1.2, 2.5, 5, 10, 25, 50 and 100 μM to rule out false negatives. Bacterial cytotoxicity was expressed as percent of control growth (OD650). Compounds with growth of less than 60% control were flagged and considered bacterial cytotoxic. […] Significances of the positive counts between the treatment and control were determined using one-tailed Fisher's exact test.

[2] = target: activating mutant bearing EGFR; assay: KINOMEScan KdELECT inhibitor binding constants (Kd); conditions: result in words
Description: (§1) In vitro kinase activity (inhibitor binding constants (Kd) and biochemical inhibition (IC50's)) were assessed by Eurofins DiscoverX (Kd determinations) and Eurofins Cerep (biochemical IC50 determinations).

[3] = test system: activating mutant bearing EGFR; assay: KinaseProfiler enzymatic radiometric biochemical inhibition (IC50); conditions: ATP 10 μM, result in words
Description: as §1

Caco-2 cells = assay: Caco-2 cell permeability assay; format: in vitro ADME; conditions: for efflux / permeability: result in words
Description: (§2) Compounds were evaluated at Pharmaron Inc. for their ability to permeate Caco-2 cells and MDCKII-MDR1 cells. A 96-well HTS Transwell plate (Corning) was used for the Caco-2 and MDCKII-MDR1 cell seeding. Caco-2 cells were seeded at a density of 6.86×10^5 cells/mL and cultivated for 14-18 days prior to assays. MDCKII-MDR1 cells were seeded at a density of 1.56×10^6 cells/mL and cultivated for 4-8 days prior to assays. To determine the rate of drug transport in both the absorptive (apical to basolateral (A-B)) and secretory (basolateral to apical (B-A)) directions, compounds (5 μM in DMSO for Caco-2 cells, and 1 μM in DMSO for MDCKII-MDR1 cells) were added to the donor wells. Plates were incubated at 37° C. for 2 h and samples (50 μL) were taken at the beginning and end of the incubation in both the donor and acceptor wells with the assay run in duplicate (n=2). Samples were analyzed by LC-MS/MS. The apparent permeability coefficient (Papp) in units (cm/s×10^−6) was calculated using the following equation.
(§3) where, VA represents the volume (mL) in the acceptor well. Area is the surface of the membrane (0.143 cm^2 for Transwell-96 well plate) and time is the total transport time in sec.
(§4) The efflux ratio was determined using the following equation: Efflux ratio=Papp (B-A)/Papp(A-B)
(§5) Where, Papp (B-A) indicates the apparent permeability in the basolateral to apical direction, and Papp (A-B) indicates the apparent permeability in the apical to basolateral direction.

MDCKII-MDR1 cells = assay: MDCKII-MDR1 cell permeability assay; format: in vitro ADME, canine
Description: as §2, §3, §4, §5

| Compound | mutagenicity in AMES fluctuation assay [1] | inhibitor-binding constants (Kd) [2] | biochemical inhibition (IC50) [3] | enhancement in permeability compared to 1 (Caco-2 cells) | efflux (Caco-2 cells) | increase in permeability compared to 1 (MDCKII-MDR1 cells) | efflux (MDCKII-MDR1 cells; result in words) | permeability (Caco-2 cells) | permeability (MDCKII-MDR1 cells; result in words) |
| --- | --- | --- | --- | --- | --- | --- | --- | --- | --- |
| COc1cc2ncnc(Nc3ccc(F)c(Cl)c3)c2cc1OCCCN1CCOCC1 [Compound 1, Gefitinib, reference compound] | neither 1 or 6 were mutagenic |  |  |  |  |  |  |  |  |
| COc1cc2ncnc(Nc3ccc(F)c(Cl)c3)c2cc1OCCON1CCOCC1 [Compound 6, N-(3-chloro-4-fluorophenyl)-7-methoxy-6-(2-(morpholinooxy)ethoxy)quinazolin-4-amine] | neither 1 or 6 were mutagenic | single-digit nanomolar | single-digit nanomolar | 14 fold | greatly decreased efflux | roughly 4 fold | decreased efflux |  |  |
| COc1cc2ncnc(Nc3cccc(Cl)c3F)c2cc1OCCON1CCOCC1 [Compound 13, N-(3-chloro-2-fluorophenyl)-7-methoxy-6-(2-(morpholinooxy)ethoxy)quinazolin-4-amine] |  |  |  |  | reduced efflux ratios |  | low efflux | remarkably enhanced permeability | excellent permeability |
| COc1cc2ncnc(Nc3ccc(F)c(Cl)c3)c2cc1OCCON1CCN(C)CC1 [Compound 14, N-(3-chloro-4-fluorophenyl)-7-methoxy-6-(2-((4-methylpiperazin-1-yl)oxy)ethoxy)quinazolin-4-amine] |  |  |  |  | high efflux |  |  | low permeability |  |
